Patent US10987351B2, “RORgamma modulators and uses thereof” (Genfit, priority 2017, dated 2021)

Columns and labels:
[1] = target: T1, RORγt ligand-binding domain (RORγt-LBD) (Homo sapiens, UniProt P51449); test: Time-resolved FRET (TR-FRET) RORγt coactivator assay; format: biochemical; details: GST-RORγ-LBD, biotinylated RIP140 peptide, 2 hours; read-out: IC50, coactivator-RORγt binding inhibition (TR-FRET)
T1 construct: 20 nM recombinantly expressed RORγ-LBD fused to GST
T1 sequence (P51449 269-508 limits assumed): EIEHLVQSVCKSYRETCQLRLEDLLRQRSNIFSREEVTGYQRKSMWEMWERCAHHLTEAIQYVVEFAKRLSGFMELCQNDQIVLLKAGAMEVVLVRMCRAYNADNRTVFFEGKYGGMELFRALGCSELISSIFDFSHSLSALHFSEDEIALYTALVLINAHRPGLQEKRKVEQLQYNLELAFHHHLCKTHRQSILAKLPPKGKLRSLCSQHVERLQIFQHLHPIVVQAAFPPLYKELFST
Description: Time-resolved FRET (TR-FRET) RORγt coactivator assay was used to identify RORγ modulator compounds with ligand-dependent coactivator displacement. The assay uses a d2-labeled anti-GST antibody, synthetic N-terminally biotinylated peptide which is derived from nuclear receptor coactivator protein RIP140, and a RORγt ligand-binding domain (RORγt-LBD) that is tagged with glutathione-S-transferase (GST). The influence of compounds on the RORγ-peptide interaction relies on the binding dependent energy transfer from a donor to an acceptor fluorophor attached to the binding partner of interest. […] For reduction of background from compound fluorescence, TR-FRET method makes use of generic fluorophore labels and time resolved detection.
The assays were done in a final volume of 20 μl in a 384 well plate in a CHAPS buffer (2 mM CHAPS; 1 mM DTT, 2 mM EDTA; 0.1% BSA), containing 20 nM recombinantly expressed RORγ-LBD fused to GST, 30 nM N-terminally biotinylated peptide, 1 nM streptavidin-terbium conjugate and 20 nM d2 labeled-anti-GST. Test compounds were diluted using 10 mM stock solution. The range of the final compound concentrations used in this test was from 0.3 nM to 30 μM (logarithmic scale). DMSO content of the samples was kept at 1%. The assay was equilibrated for 2 hours in the dark at room temperature in 384 well plates (Falcon). The signal was detected by an Ultra384 reader (TECAN). […] Compounds that promote coactivator displacement induce a concentration-dependent decrease in time-resolved fluorescent signal. Data were collected and analyzed using GraphPad Prism software (GraphPad Software V5.02, San Diego Calif. USA). IC50 in μM and Emax in % were reported for each compound.

human RORγt [2] = target: T2, human RORγt (Homo sapiens, UniProt P51449); test: IL-17 secretion from EL4 murine lymphoma cells overexpressing human RORγt; format: cell-based; details: human RORγt-transfected EL4 cells, PMA and ionomycin stimulation; read-out: IC50, inhibition of IL-17 secretion
T2 sequence (P51449 1-497 isoform P51449-2): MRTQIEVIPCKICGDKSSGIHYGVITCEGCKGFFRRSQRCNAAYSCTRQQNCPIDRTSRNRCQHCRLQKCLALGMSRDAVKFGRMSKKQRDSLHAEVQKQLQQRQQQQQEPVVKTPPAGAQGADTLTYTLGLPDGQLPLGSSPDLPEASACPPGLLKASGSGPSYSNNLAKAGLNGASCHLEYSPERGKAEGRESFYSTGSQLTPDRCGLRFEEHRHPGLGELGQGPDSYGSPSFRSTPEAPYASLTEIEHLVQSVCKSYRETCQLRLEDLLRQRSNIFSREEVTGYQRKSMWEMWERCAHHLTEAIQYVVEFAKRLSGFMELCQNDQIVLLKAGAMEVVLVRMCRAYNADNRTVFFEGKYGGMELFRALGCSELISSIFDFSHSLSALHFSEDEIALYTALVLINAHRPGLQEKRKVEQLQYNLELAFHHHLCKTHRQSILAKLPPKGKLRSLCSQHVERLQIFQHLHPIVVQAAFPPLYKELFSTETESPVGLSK
Procedure: Murine EL-4 lymphoma cell line overexpressing human RORγt was used in this functional assay to assess compound ability to inhibit IL-17 cytokine secretion.
EL-4 cells are maintained in a standard culture medium RPMI supplemented with 10% fetal calf serum, 1% sodium pyruvate, 1% essential amino acids and 1% antibiotics at 37° C. in a humidified atmosphere of 5% CO02 and 95% air. Culture medium was changed every 2 days. EL4 cells were transfected with a plasmid encoding hRORγt (sequence identical to published sequence NM 001001523). […] Briefly, 1 μg of DNA/1 million cells was served to transfect EL-4 cells. Cell/DNA suspension was transferred into certified cuvette and the electroporation of RORγt plasmid was carried out using appropriate Nucleofector® program.
Cells were seeded in 96 well plates at a density of 150000 cells/I well then treated with compounds of this invention at indicated concentrations and incubated for 24 hours at 37° C. in a humidified atmosphere of 5% CO2 and 95% air. EL-4 cells were pretreated with test compounds (RORγ modulators) and stimulated with PMA (10 ng/mL) and ionomycin (1 μM final concentration) in the presence of test compound concentrations for additional 24 h at 37° C. in a humidified atmosphere of 5% CO2 and 95% air. Subsequently, supernatants were collected (after centrifugation at 300 g for 10 minutes) to determine the concentrations of IL-17 by HTRF (CisBio, France) or ELISA (R&D Systems Europe) according to the manufacturer's protocols.

human RORγt [3] = target: T2, human RORγt; test: RORE Luciferase/RORγt transactivation assay; format: cell-based; design: the full-length cDNA of human RORγt; V5-His (encoded by the vector); expressed in transfected cells; host or cells: COS-7 (monkey kidney); details: COS-7 cells transfected with human IL-17 promoter luciferase reporter and RORγt plasmid, 20 h; read-out: IC50, RORγt activity inhibition (luciferase reporter)
Procedure: It is well known that RORγ binds to a conserved non-coding sequence (CNS) enhancer element in the IL-17 promoter.
Culture medium was changed every 2 days.
The 4.3 Kb human IL-17 promoter containing the RORγ-specific CNS enhancer element was PCR amplified from human genomic DNA and cloned into a pGL3-TKLuc2Cp reporter plasmid.
The luciferase reporter plasmid and the RORγt overexpression plasmid were transfected into COS-7 cell line using 4 μLJetPEI™/μg of DNA. Briefly, 150 ng of DNA (ration 1/2 between RORE-Tk Luc2Cp and cDNA RORγt or the empty vector for the negative control) was served to transfect adherent COS-7 cells in a […] culture flask, in complete medium (see cos-7 cell line culture).
Cells were then detached (using trypsin) and washed by centrifugation at 300 g for 10 minutes. Cell pellet was resuspended in serum free/phenol red free DMEM and seeded in 384 well plates at a density of 10000 cells/well and then incubated for 4 h at 37° C.
Compounds were dissolved in 100% DMSO to obtain 10 mM stock solutions. For each compound, test concentrations were diluted in serum free/phenol red free DMEM using the Genesis Freedom 200™ (TECAN) and added to the cells to obtain a 0.3% DMSO final concentration (in a final volume of 40 μL per well).
The luciferase activity was then measured with 40 μL/well steady-Glo Luciferase assay system (Promega, Madison, Wis.) and after incubation at room temperature for 30 minutes. The luminescence was estimated using the Ultra384 reader (TECAN). Data were collected and analyzed using GraphPad Prism software (GraphPad Software V5.02, San Diego Calif. USA). IC50 in μM and Emax in % were reported for each compound.

[4] = tested on: patients with moderate to severe psoriasis; details: cited from earlier work

| IC50 [1] [nM] | IC50 (human RORγt [2]) [nM] | IC50 (human RORγt [3]) [nM] | Compound | reduction in the Psoriasis Area Severity Index (PASI) score relative to placebo ([4]; 350 mg dose group) [%] | placebo-adjusted PASI score reduction ([4]; 700 mg dose group) [%] |
| --- | --- | --- | --- | --- | --- |
| < 100 | 100 to 1000 | 100 to 1000 | COc1ccc(C(NC(=O)Cc2cc(N3CCN(C(C)=O)CC3)ccc2C)c2ccc(C)o2)c(N2CCCCCC2)c1 (centres unmarked) [Cpd.11, 2-[5-(4-acetylpiperazin-1-yl)-2-methylphenyl]-N-{[2-(azepan-1-yl)-4-methoxyphenyl](5-methylfuran-2-yl)methyl}acetamide] | – | – |
| < 100 | 1000 to 10000 | 100 to 1000 | CC(=O)N1CCN(c2ccc(F)c(CC(=O)NC(c3ccc(C)o3)c3ccc(C)cc3C)c2)CC1 (centres unmarked) [Cpd.12, 2-[5-(4-acetylpiperazin-1-yl)-2-fluorophenyl]-N-[(2,4-dimethylphenyl)(5-methylfuran-2-yl)methyl]acetamide] | – | – |
| < 100 | 100 to 1000 | 100 to 1000 | COc1ccc(C(NC(=O)Cc2cc(N3CCN(C(C)=O)CC3)ccc2F)c2ccc(C)o2)c(N2CCCCCC2)c1 (centres unmarked) [Cpd.14, 2-[5-(4-acetylpiperazin-1-yl)-2-fluorophenyl]-N-{[2-(azepan-1-yl)-4-methoxyphenyl](5-methylfuran-2-yl)methyl}acetamide] | – | – |
| < 100 | 100 to 1000 | 100 to 1000 | COc1ccc(C(NC(=O)Cc2cc(N3CCN(C(C)=O)CC3)ccc2F)c2ccccc2)c(N2CCCCCC2)c1 (centres unmarked) [Cpd.17, 2-[5-(4-acetylpiperazin-1-yl)-2-fluorophenyl]-N-{[2-(azepan-1-yl)-4-methoxyphenyl](phenyl)methyl}acetamide] | – | – |
| < 100 | 100 to 1000 | < 100 | CC(=O)C1CCN(c2ccc(CC(=O)NC(c3ccc(C)o3)c3ccc(C)cc3N3CCCCC3)cc2)CC1 (centres unmarked) [Cpd.19, 2-[4-(4-acetylpiperidin-1-yl)phenyl]-N-{[4-methyl-2-(piperidin-1-yl)phenyl](5-methylfuran-2-yl)methyl}acetamide] | – | – |
| < 100 | < 100 | < 100 | CC(=O)N1CCN(c2cccc(CC(=O)NC(c3ccc(C)o3)c3ccc(C)cc3N3CCCCC3)c2)CC1 (centres unmarked) [Cpd.20, 2-[3-(4-acetylpiperazin-1-yl)phenyl]-N-{[4-methyl-2-(piperidin-1-yl)phenyl](5-methylfuran-2-yl)methyl}acetamide] | – | – |

The remaining lines, values behind:

| Compound | IC50 [1] [nM] | IC50 (human RORγt [2]) [nM] | IC50 (human RORγt [3]) [nM] | reduction in the Psoriasis Area Severity Index (PASI) score relative to placebo ([4]; 350 mg dose group) [%] | placebo-adjusted PASI score reduction ([4]; 700 mg dose group) [%] |
| --- | --- | --- | --- | --- | --- |
| CC(=O)N1CCN(c2ccc(C)c(CC(=O)NC(c3ccccc3)c3ccc(C)cc3N3CCCC3)c2)CC1 (centres unmarked) [Cpd.3, 2-[5-(4-acetylpiperazin-1-yl)-2-methylphenyl]-N-{[4-methyl-2-(pyrrolidin-1-yl)phenyl](phenyl)methyl}acetamide] | < 100 | 100 to 1000 | < 100 | – | – |
| CC(=O)N1CCN(c2ccc(C)c(CC(=O)NC(c3ccc(C)o3)c3ccc(C)cc3N3CCCCC3)c2)CC1 (centres unmarked) [Cpd.10, 2-[5-(4-acetylpiperazin-1-yl)-2-methylphenyl]-N-{[4-methyl-2-(piperidin-1-yl)phenyl](5-methylfuran-2-yl)methyl}acetamide] | < 100 | < 100 | < 100 | – | – |
| Cc1ccc(C(NC(=O)Cc2cc(N3CCN(S(C)(=O)=O)CC3)ccc2F)c2ccc(C)o2)c(N2CCCCC2)c1 (centres unmarked) [Cpd.16, 2-[2-fluoro-5-(4-methanesulfonylpiperazin-1-yl)phenyl]-N-{[4-methyl-2-(piperidin-1-yl)phenyl](5-methylfuran-2-yl)methyl}acetamide] | < 100 | 100 to 1000 | 100 to 1000 | – | – |
| Cc1ccc(C(NC(=O)Cc2ccc(N3CCC(S(C)(=O)=O)CC3)cc2)c2ccc(C)o2)c(N2CCCCC2)c1 (centres unmarked) [Cpd.18, 2-[4-(4-methanesulfonylpiperidin-1-yl)phenyl]-N-{[4-methyl-2-(piperidin-1-yl)phenyl](5-methylfuran-2-yl)methyl}acetamide] | < 100 | 100 to 1000 | < 100 | – | – |
| CCS(=O)(=O)c1ccc(CNC(=O)c2cnc3c(c2)CN(C[C@H]2CC[C@H](C(F)(F)F)CC2)[C@H]3C(C)C)nc1 [VTP-43742] | – | – | – | 24 | 30 |
